Measured values taken from US7749985B2, “Acyloxyalkyl carbamate prodrugs, methods of synthesis and use” (XenoPort, Inc., priority 2006, dated 2010).

Assays:
[1] = pH-Dependent Stability of prodrugs in aqueous buffers; assay type: physicochemical; settings: pH 2 to pH 8, 37° C.
Procedure: (§1) The stabilities of prodrugs were evaluated in one or more in vitro systems using a variety of tissue preparations following methods known in the art. The chemical stability of prodrugs in aqueous buffers at a pH of 2.0, 7.4, and 8.0 were also measured. Tissues were obtained from commercial sources (e.g., Pel-Freez Biologicals, Rogers, Ark., or GenTest Corporation, Woburn, Mass.). Experimental conditions used for the in vitro studies are described in Table 1. Each preparation was incubated with test compound at 37° C. for one hour. Aliquots (50 μL) were removed at 0, 30, and 60 min and quenched with 0.1% trifluoroacetic acid in acetonitrile. Samples were then centrifuged and analyzed by LC/MS/MS. Stability of prodrugs towards specific enzymes (e.g., peptidases, etc.) was also assessed in vitro by incubation with the purified enzyme.
pH-Dependent Stability: The long-term pH-dependent stability of tranexamic acid prodrug at 37° C. was measured by LC/MS/MS at five different representative pH values from pH 2.0 to pH 8.0 was determined. The test concentration was 5 μM. The amount of remaining prodrug and the amount of tranexamic acid released from the prodrug was determined at 0 hour and after 24 hours.

[2] = Enzymatic cleavage of prodrugs in vitro (tissue preparations of Table 1); assay type: in vitro ADME; settings: in the presence of the tissue preparations, 37° C.
Procedure: as §1
Pancreatin Stability: Stability studies were conducted by incubating prodrug (5 μM) with 1% (w/v) pancreatin (Sigma, P-1625, from porcine pancreas) in 0.025 M Tris buffer containing 0.5 M NaCl (pH 7.5) at 37° C. for 60 min. The reaction was stopped by addition of 2 volumes of methanol. After centrifugation at 14,000 rpm for 10 min, the supernatant was removed and analyzed by LC/MS/MS.
Caco-2 Homogenate S9 Stability: Caco-2 cells were grown for 21 days prior to harvesting. Culture medium was removed and cell monolayers were rinsed and scraped off into ice-cold 10 mM sodium phosphate/0.15 M potassium chloride, pH 7.4. Cells were lysed by sonication at 4° C. using a probe sonicator. Lysed cells were then transferred into 1.5 mL centrifuge vials and centrifuged at 9,000 g for 20 min at 4° C. The resulting supernatant (Caco-2 cell homogenate S9 fraction) was aliquoted into 0.5 mL vials and stored at −80° C. until used.
For stability studies, prodrug (5 μM) was incubated in Caco-2 homogenate S9 fraction (0.5 mg protein per mL) for 60 min at 37° C. Concentrations of intact prodrug and released tranexamic acid were determined at zero time and 60 min using LC/MS/MS.

[3] = animal models (Merino et al., Biopharm. Drug. Disp. 1989); cited from earlier work

Row | SMILES | stability from pH 2 to pH 8 [1] | hydrolysis to release the corresponding 3-aminopropylphosphinic acid analog [2] | absorption following administration into the colon [3]
1 | CCCCP(=O)(O)CCCNC(=O)OC(C)OC(=O)c1ccccc1 (centres unmarked) [Compound 211, 3-{[1-Benzoyloxyethoxy]carbonylamino}propyl(n-butyl)phosphinic Acid] | good stability | hydrolyzed to release the corresponding 3-aminopropylphosphinic acid analogs | 
2 | NCC(CC(=O)O)c1ccc(Cl)cc1 (racemic) [Baclofen, (±)-4-Amino-3-(4-chlorophenyl)butanoic acid] |  |  | poorly absorbed
3 | CCCCP(=O)(O)CCCNC(=O)OC(OC(=O)C(C)C)C(C)C (centres unmarked) [39/40, 3-{[1-isobutanoyloxyisobutoxy]carbonylamino}propyl(n-butyl)phosphinic acid] | good stability | hydrolyzed to release the corresponding 3-aminopropylphosphinic acid analogs | 

Second part, led by results:

Row | stability from pH 2 to pH 8 [1] | SMILES | hydrolysis to release the corresponding 3-aminopropylphosphinic acid analog [2] | absorption following administration into the colon [3]
4 | good stability | CCCCP(=O)(O)CCCNC(=O)OC(C)OC(=O)C(C)C (centres unmarked) [Compound 31, 3-{[1-Isobutanoyloxyethoxy]carbonylamino}propyl(n-butyl)phosphinic Acid] | hydrolyzed to release the corresponding 3-aminopropylphosphinic acid analogs | 
5 | good stability | CCCCP(=O)(O)CCCNC(=O)OCOC(=O)C(C)C [Compound 35, 3-{[Isobutanoyloxymethoxy]carbonylamino}propyl(n-butyl)phosphinic Acid] | hydrolyzed to release the corresponding 3-aminopropylphosphinic acid analogs | 
6 | good stability | CCCCP(=O)(O)CCCNC(=O)OCOC(=O)c1ccccc1 [Compound 212, 3-{[1-Benzoyloxymethoxy]carbonylamino}propyl(n-butyl)phosphinic Acid] | hydrolyzed to release the corresponding 3-aminopropylphosphinic acid analogs | 
